The target of one series is T1, CES1b (Homo sapiens, UniProt P23141).
T1 construct: purchased Corning Incorporated (Corning, NY); host or cells: baculovirus-infected insect cells (microsomal fraction, Supersomes)
T1 sequence (P23141 18-567): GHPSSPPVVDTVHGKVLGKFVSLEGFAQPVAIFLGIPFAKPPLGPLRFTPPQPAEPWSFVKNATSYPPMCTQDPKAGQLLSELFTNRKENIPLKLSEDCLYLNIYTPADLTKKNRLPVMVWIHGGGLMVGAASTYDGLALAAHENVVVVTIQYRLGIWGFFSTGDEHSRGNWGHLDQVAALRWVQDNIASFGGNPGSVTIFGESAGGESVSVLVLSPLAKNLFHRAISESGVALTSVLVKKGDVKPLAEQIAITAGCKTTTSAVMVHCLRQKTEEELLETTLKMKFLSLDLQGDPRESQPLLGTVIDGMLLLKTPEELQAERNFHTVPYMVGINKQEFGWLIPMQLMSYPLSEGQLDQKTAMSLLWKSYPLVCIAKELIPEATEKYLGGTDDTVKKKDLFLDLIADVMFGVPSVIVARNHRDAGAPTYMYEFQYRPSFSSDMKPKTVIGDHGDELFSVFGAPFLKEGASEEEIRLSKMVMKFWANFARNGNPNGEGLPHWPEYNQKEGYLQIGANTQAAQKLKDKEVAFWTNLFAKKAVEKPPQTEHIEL
Kind of series: CES1b-catalyzed hydrolysis of RDV and control (substrate disappearance, LC-MS). In kind it is in vitro ADME. On the procedure: (§1) The catalytic activity of carboxylesterase 1b (CES1b), carboxylesterase 1c (CES1c), CES2, and CatA toward RDV hydrolysis was measured using protein-enriched subcellular fraction (CES isozymes) or recombinant proteins (CatA). The reaction rates were determined by monitoring the disappearance of RDV using a liquid chromatography-mass spectrometry (LC-MS) method.
(§2) RDV or positive-control substrates (oseltamivir for CES1 or procaine for CES2) were incubated with individual Supersome preparations (final CES concentration, 1.5 mg/ml) in 0.1 M potassium phosphate buffer (pH 7.4) at 37°C. Substrates were added to a final concentration of 1 μM to initiate the reaction. The final incubation volume was 250 μl. Aliquots were removed after incubation for 0, 10, 30, 60, and 120 min. The reactions were stopped by the addition of the quench solution containing the LC-MS internal standard (IS) (labetalol). Following protein precipitation and centrifugation, 150 μl of supernatant was dried down and reconstituted with 250 μl water. All samples were analyzed by an LC-MS, and the analyte/internal standard peak area ratio (PAR) values were used for quantification. Disappearance of RDV or positive-control compounds was monitored over the incubation time period. Three experiments were conducted with two replicates in each experiment, and data are reported as averages from the three experiments.
(§3) In all studies apart from those with CES1 and CatA with enzyme inhibitors, samples (10-μl aliquots) were injected with a Thermo Scientific autosampler. The LC instrumentation consisted of a Thermo Scientific Dionex UltiMate 3000 RS pump, and the LC column was a Waters Acquity UPLC BEH C18 (1.7 μm particle size, 2.1 by 50 mm). Mobile phases A and B were water 99.9% (vol/vol) containing 0.1% (vol/vol) formic acid, and acetonitrile 99.9% (vol/vol) containing 0.1% (vol/vol) formic acid, respectively, pumped at 0.2 ml/minute. Elution was achieved by a series of linear gradients over 2.33 min followed by reequilibration for 2.57 min. The MS instrument was a Thermo Q Exactive Hybrid Quadrupole-Orbitrap operating in positive or negative ionization mode as appropriate. This was calibrated on a weekly basis, and data were processed with GMSU 8.4.66 software by Gubbs Inc. (Alpharetta, GA). Mass tolerance of 5 ppm was used.

A further series concerns the target T2, CES2 (Homo sapiens, UniProt O00748).
T2 construct: purchased Corning Incorporated (Corning, NY); host or cells: baculovirus-infected insect cells (microsomal fraction, Supersomes)
T2 sequence (O00748 27-559): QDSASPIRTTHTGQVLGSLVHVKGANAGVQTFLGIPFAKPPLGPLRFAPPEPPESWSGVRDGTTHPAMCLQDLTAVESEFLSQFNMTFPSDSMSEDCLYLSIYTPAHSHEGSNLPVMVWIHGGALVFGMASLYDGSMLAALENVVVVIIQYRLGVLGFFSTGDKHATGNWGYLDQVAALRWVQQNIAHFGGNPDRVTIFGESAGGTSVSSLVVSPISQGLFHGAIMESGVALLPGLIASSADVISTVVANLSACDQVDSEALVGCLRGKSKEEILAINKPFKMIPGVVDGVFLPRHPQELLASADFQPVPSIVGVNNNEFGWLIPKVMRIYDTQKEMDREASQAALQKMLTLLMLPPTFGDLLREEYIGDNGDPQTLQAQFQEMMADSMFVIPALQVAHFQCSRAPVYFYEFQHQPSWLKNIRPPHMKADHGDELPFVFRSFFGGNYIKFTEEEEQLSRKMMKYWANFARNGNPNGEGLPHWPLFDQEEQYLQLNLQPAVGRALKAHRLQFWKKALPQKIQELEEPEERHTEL
Kind of series: CES2-catalyzed hydrolysis of RDV and control (substrate disappearance, LC-MS). In kind it is in vitro ADME. Conditions: for half-life at 1 μM: human, CES2 Supersomes (protein-enriched subcellular fraction). As to the method: as §1, §2, §3

The next series has as its target T3, CatA (Homo sapiens, UniProt P10619).
T3 sequence (P10619 29-326 limits assumed): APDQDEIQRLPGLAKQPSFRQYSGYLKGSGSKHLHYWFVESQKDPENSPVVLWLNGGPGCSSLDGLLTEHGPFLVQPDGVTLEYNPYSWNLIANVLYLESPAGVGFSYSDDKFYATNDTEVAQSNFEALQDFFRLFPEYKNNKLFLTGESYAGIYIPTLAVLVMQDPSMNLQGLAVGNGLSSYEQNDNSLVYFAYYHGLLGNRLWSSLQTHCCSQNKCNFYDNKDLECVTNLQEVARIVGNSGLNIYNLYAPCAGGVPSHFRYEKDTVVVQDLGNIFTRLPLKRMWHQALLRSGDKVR
T3 sequence (P10619 327-480 limits assumed): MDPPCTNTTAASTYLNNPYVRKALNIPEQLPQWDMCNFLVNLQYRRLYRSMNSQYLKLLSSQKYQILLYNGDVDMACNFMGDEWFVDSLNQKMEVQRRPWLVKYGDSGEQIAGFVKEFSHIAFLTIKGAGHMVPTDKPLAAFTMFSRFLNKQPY
In words: CatA-catalyzed hydrolysis of RDV and control (substrate disappearance, LC-MS). As to the method: as §1
Following protein precipitation and centrifugation, 150 μl of supernatant was dried down and reconstituted with 250 μl water. […] Three experiments were conducted with two replicates in each experiment, and data are reported as averages from the three experiments.
as §3

A further series concerns SARS-CoV-2. In words: microbe, parasite or virus in culture. In kind it is cell-based.

The structures appear in SMILES notation. Several values for one entry are separate records, joined by “and”; a condition that tells them apart may be missing. Equal entries are not always repeated. Where two headings read alike, the source gives them in different places.

With `CCC(CC)COC(=O)[C@H](C)N[P@](=O)(OC[C@H]1O[C@@](C#N)(c2ccc3c(N)ncnn23)[C@H](O)[C@@H]1O)Oc1ccccc1` [RDV, Remdesivir], the half-life at 1 μM is 9.7 min on CES1b (human, CES1b Supersomes (protein-enriched subcellular fraction), 1 μM substrate, CES 1.5 mg/ml, pH 7.4, 37°C, read-out: t1/2, CES1b (converted)); above 1000 min on CES2 (pH 7.4, 1 μM substrate, CES 1.5 mg/ml, pH 7.4, 37°C, read-out: t1/2, CES2 (converted)); above 960 min on CES2 (pH 7.4, as stated in text, read-out: half-life, CES2); 43 min on CatA (human, recombinant CatA (activated with CatL), pH 6.5). Further, the “CES1b hydrolysis rate relative to oseltamivir” value at CES1b (times faster than positive control oseltamivir) worked out at 2 times. Besides, the “Activity for amidate ester cleavage, CES2” value at CES2 (1 μM substrate, CES 1.5 mg/ml, pH 7.4, 37°C) is on record as 2.8 ± 2.6 × 10^−4 nmol/min/mg. At CatA (1 μM substrate, 5 nM CatA, pH 6.5, 37°C), the “Activity for amidate ester cleavage, CatA” value is reported as 74 ± 32 nmol/min/mg. Further, the “CatA hydrolysis rate relative to TAF” value at CatA (fold lower than hydrolysis rate of TAF) came out at 3.4 fold. Besides, in the series with SARS-CoV-2 (EC50 of combination divided by EC50 of RDV (plus DMSO), 0.5 μM telaprevir), the “Fold-RDV EC50, RDV + 0.5 μM telaprevir” value turned out to be 1.70 ± 0.19. Besides, in the series on SARS-CoV-2 (EC50 of combination divided by EC50 of RDV (plus DMSO), 2.5 μM telaprevir), the “Fold-RDV EC50, RDV + 2.5 μM telaprevir” value is reported as 2.27 ± 0.25. For the same compound, the “Fold-RDV EC50, RDV + 10 μM telaprevir” value with SARS-CoV-2 (EC50 of combination divided by EC50 of RDV (plus DMSO), 10 μM telaprevir) was 2.9 and 2.91 ± 0.65. In addition, the 50% effective concentration (EC50) with SARS-CoV-2 (Severe acute respiratory syndrome coronavirus 2, 48 h, compound alone (plus DMSO), A549-hACE2 cells, 48 h) was around 99 nM.

For orientation: EC50 means the concentration giving half of the maximal effect.

The values above are taken from PMC8370248, “Key Metabolic Enzymes Involved in Remdesivir Activation in Human Lung Cells” (Antimicrobial Agents and Chemotherapy, 2021).
